The test system of one test is Candida albicans 138. The experiment in a line: microbe, parasite or virus in culture. The note with it: 37 °C; for MIC50 / MIC90: C. albicans 138 (fluconazole-resistant clinical isolate), RPMI 1640/MOPS pH 7.0, 24 h, triplicate; for MIC50: at least 50% growth inhibition vs growth control; for MIC90: lowest concentration with no visible growth. The procedure, abridged: (§1)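 CLSI M27-A3-based microdilution, RPMI/MOPS pH 7.0, 24 h at 37 °C, ~1% DMSO.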

A further test concerns Candida albicans B3. The experiment in a line: microbe, parasite or virus in culture. To be noted: 37 °C; for MIC50 / MIC90: C. albicans B3 (fluconazole-sensitive isolate), RPMI 1640/MOPS pH 7.0, 24 h, triplicate; for MIC50: at least 50% growth inhibition vs growth control; for MIC90: lowest concentration with no visible growth. An outline of the steps:
as §1

A further test deals with Candida albicans SC 5314. The experiment in a line: microbe, parasite or virus in culture. The note with it: C. albicans SC 5314, 37 °C; for MIC50 / MIC90: RPMI 1640/MOPS pH 7.0, 24 h, triplicate; for MIC50: at least 50% growth inhibition vs growth control; for MIC90: lowest concentration with no visible growth; for MFC: aliquots plated on YPD agar, 24 h, lowest concentration with no colony growth. An outline of the steps:
as §1

Another test has as its system Candida albicans 247. The experiment in a line: microbe, parasite or virus in culture. To be noted: 37 °C; for MIC50 / MIC90: C. albicans 247 (fluconazole-resistant clinical isolate), RPMI 1640/MOPS pH 7.0, 24 h, triplicate; for MIC50: at least 50% growth inhibition vs growth control; for MIC90: lowest concentration with no visible growth. An outline of the steps: as §1

A further test relates to Candida albicans B4. The experiment in a line: microbe, parasite or virus in culture. The note with it: 37 °C; for MIC50 / MIC90: C. albicans B4 (fluconazole-resistant, MDR1 overexpression), RPMI 1640/MOPS pH 7.0, 24 h, triplicate; for MIC50: at least 50% growth inhibition vs growth control; for MIC90: lowest concentration with no visible growth. The procedure, abridged:
as §1

The test system of test [1] is Candida glabrata DSM 6128. The experiment in a line: microbe, parasite or virus in culture. To be noted: C. glabrata DSM 6128, RPMI 1640/MOPS pH 7.0, 24 h, 37 °C, triplicate; for MIC50: at least 50% growth inhibition vs growth control; for MIC90: lowest concentration with no visible growth. An outline of the steps: as §1
The subject of test [2] is Candida spp. strains tested. The experiment in a line: Antifungal activity against the whole panel of strains tested. In kind it is cell-based. To be noted: panel of Table 2, 8–250 µM. As for the experimental part:
Antifungal activity of the tested compounds against yeast cells was determined in 96-well plates as described in the CLSI document M27-A3 [39], with minor modifications (CLSI, 2008). Suspensions of the microorganisms were prepared by taking one loop of pure culture into sterile water and adjusting optical density to 0.1 at 660 nm wavelength and further 50-fold dilution in RPMI 1640 medium, resulting in cell concentration of approximately 2 × 10^4 CFU/mL [21]. Then, 100 μL of cells were added to the wells of a 96-well microtiter plate that contained 16–500 μM tested compounds and 16–500 μM of FLC or 0.2–62 μM AmB. The plates were incubated for 24 h at 37 °C. Each test was performed in triplicate. […] The MIC90 was defined as the lowest concentration of drug showing no visible growth; MIC50 was defined as the concentration that yielded at least 50% growth inhibition when compared with the growth control well.

For test [3], the system named is C. albicans SC5314. The experiment in a line: Membrane permeabilization assay by propidium iodide uptake (flow cytometry, fluorescence microscopy). The format is cell-based, Candida albicans. How it is done: Suspensions of C. albicans SC5314 were prepared by taking one loop of pure culture growth from 24 h YPD agar plates into RPMI 1640 medium and adjusting optical density to 0.1 at 660 nm wavelength. […] The cell suspensions were then treated for 0.5, 2, 4, 6, and 24 h at 37 °C with continuous agitation (180 rpm). The cells were then centrifuged and resuspended in 200 µL of PBS buffer (pH 7.4). Subsequently, cells were treated with propidium iodide (1 mg/mL, final concentration) and incubated for 30 min at room temperature in the dark. Cellular fluorescence was visualized using lens 20×, using Olympus Fluorescence Microscope BX60 (Olympus, Tokyo, Japan). The images were also post-processed utilizing cell Sens program. The fluorescence intensity emitted by DNA-bound propidium iodide was measured using a flow cytometer (Merck Millipore guava easyCyte 8, Darmstadt, Germany). Data were obtained from at least two independent experiments.
(A flow cytometer gives signals particle by particle.)

In test [4] the test system is C. albicans SC5314. The note with it: C. albicans SC5314, 1 × MFC, time-kill over 24 h, RPMI 1640, 37 °C.
Procedure: Antifungal time-kill studies were carried out by a method previously described and evaluated by Klepser et al. [40]. A starting inoculum was prepared by inoculating a tube of sterile water with growth from 24 h YPD agar plates (C. albicans SC5314), and OD660 was adjusted to about 0.1 (around 10^6 cells per 1 mL). […] A negative control (growth medium without drug or organism) was also included at each time of testing. Tubes were incubated at 37 °C on an orbital shaker and vortexed before removing a sample for the determination of colony counts. After the appropriate time of incubation (0.5, 2, 4, 6, and 24 h), 1 mL of each suspension was centrifuged (2 min, 9170× g), and the pellet was re-suspended in 1 mL of PBS pH 7.4. Ten-fold serial dilutions with PBS were prepared, and 100 μL of each was inoculated on YPD agar plates in duplicate. Plates were incubated for 24 h at 37 °C. Colony forming units in the range of 30–300 were counted (on the plates containing from 30 to 300 colonies) and the number of yeast cells in 1 mL (CFU/mL) was calculated [21].

Converted amounts (≈) assume the structure as drawn. Non-standard residues stand in square brackets, D forms with d. Residues, ends and D or L forms follow the SMILES beside them. *: point of attachment. X1 = O=C(CCCC(=O)*)OC(Cn1cncn1)(Cn1cncn1)c1ccc(F)cc1F; Nle = CCCC[C@H](N)C(=O)O

As a reminder, the MFC is the smallest concentration meeting the test's criterion for killing the fungus.

As for `CCCC[C@H](NC(=O)CCCC(=O)OC(Cn1cncn1)(Cn1cncn1)c1ccc(F)cc1F)C(=O)N[C@@H](Cc1ccccc1)C(=O)N[C@@H](CCCCN)C(=O)N[C@@H](CS)C(=O)N[C@@H](CCCNC(=N)N)C(=O)N[C@@H](CCCNC(=N)N)C(=O)N[C@@H](Cc1c[nH]c2ccccc12)C(=O)N[C@@H](CCC(N)=O)C(=O)N[C@@H](Cc1c[nH]c2ccccc12)C(=O)N[C@@H](CCCNC(=N)N)C(=O)N[C@@H](CCCC)C(=O)N[C@@H](CCCCN)C(=O)N[C@@H](CCCCN)C(=O)N[C@@H](CC(C)C)C(=O)NCC(N)=O` [FLCpOH-LFacinB[Nle^1,11]-NH2] (X1-[Nle]FKCRRWQWR[Nle]KKLG-NH2), the MIC50 is listed as 23 µM (≈ 55.7 µg/mL) in the test with Candida albicans 138; 45 µM (≈ 109 µg/mL) with Candida albicans B3; 23 µM (≈ 55.7 µg/mL) with Candida albicans SC 5314; 45 µM (≈ 109 µg/mL) in the test on Candida albicans 247; 250 µM (≈ 605 µg/mL) against Candida albicans B4; 250 µM (≈ 605 µg/mL) in test [1]. Besides, the MIC90 is given as 31 µM (≈ 75 µg/mL) with Candida albicans 138; 62 µM (≈ 150 µg/mL) in the test with Candida albicans B3; 31 µM (≈ 75 µg/mL) against Candida albicans SC 5314; 62 µM (≈ 150 µg/mL) with Candida albicans 247; above 250 µM in the test with Candida albicans B4; above 250 µM in [1]. This compound registered an MFC in the test on Candida albicans SC 5314 of 250 µM (≈ 605 µg/mL). The “antifungal activity against the strains tested, in words” value (“antifungal activity” below) in test [2] is reported as “moderately or poorly active”.

Consider `CSCC[C@H](NC(=O)[C@H](C)NC(=O)[C@H](CCCNC(=N)N)NC(=O)[C@H](CCCCN)NC(=O)[C@H](Cc1c[nH]c2ccccc12)NC(=O)[C@H](CCC(N)=O)NC(=O)[C@H](Cc1ccccc1)NC(=O)[C@H](CS)NC(=O)CCCC(=O)OC(Cn1cncn1)(Cn1cncn1)c1ccc(F)cc1F)C(=O)N[C@@H](CCCNC(=N)N)C(=O)N[C@@H](CCCCN)C(=O)N[C@H](C(=O)N[C@@H](CCCNC(=N)N)C(N)=O)C(C)C` [FLCpOH-HLopt2-NH2] (X1-CFQWKRAMRKVR-NH2), for which the MIC50 in the test on Candida albicans 138 is above 250 µM; in the test with Candida albicans B3, above 250 µM; with Candida albicans SC 5314 it was 62 µM (≈ 125 µg/mL); in the test on Candida albicans 247, above 250 µM; against Candida albicans B4, above 250 µM; in test [1], above 250 µM. Besides, the MIC90 with Candida albicans 138 is above 250 µM; against Candida albicans B3, above 250 µM; against Candida albicans SC 5314, 125 µM (≈ 251 µg/mL); against Candida albicans 247 it was above 250 µM; in the test with Candida albicans B4, above 250 µM; in [1] it was above 250 µM. The “antifungal activity” value in [2] is on record as “moderately or poorly active”.

Regarding `O=C(O)CCCC(=O)OC(Cn1cncn1)(Cn1cncn1)c1ccc(F)cc1F` [FLCpOH], the MIC50 (in the test with Candida albicans 138; in the test on Candida albicans B3; against Candida albicans SC 5314; with Candida albicans 247; in the test with Candida albicans B4; in test [1]) was above 250 µM throughout. Further, the MIC90 (against Candida albicans 138; with Candida albicans B3; in the test on Candida albicans SC 5314; in the test with Candida albicans 247; in the test on Candida albicans B4; in test [1]) was above 250 µM in each case. Besides, the “antifungal activity” value in test [2] is recorded as “did not exert any antifungal activity”.

`CC[C@H](C)[C@H](NC(=O)[C@H](CCCCN)NC(=O)[C@H](CCCCN)NC(=O)[C@H](C)NC(=O)[C@H](CC(C)C)NC(=O)[C@H](C)NC(=O)[C@H](C)NC(=O)[C@H](CC(C)C)NC(=O)[C@H](C)NC(=O)[C@H](CCCCN)NC(=O)[C@H](CC(C)C)NC(=O)[C@H](CC(N)=O)NC(=O)[C@@H](NC(=O)[C@H](CCCCN)NC(=O)CNC(=O)[C@H](CC(C)C)NC(=O)[C@H](CC(C)C)NC(=O)[C@H](Cc1ccc(O)cc1)NC(=O)CNC(=O)[C@H](C)NC(=O)CCCC(=O)OC(Cn1cncn1)(Cn1cncn1)c1ccc(F)cc1F)[C@@H](C)CC)C(=O)N[C@@H](CC(C)C)C(N)=O` [FLCpOH-TP10-NH2]: the MIC50 turned out to be 45 µM (≈ 116 µg/mL) with Candida albicans 138; 31 µM (≈ 80.1 µg/mL) in the test on Candida albicans B3; 8 µM (≈ 20.7 µg/mL) with Candida albicans SC 5314; 45 µM (≈ 116 µg/mL) in the test with Candida albicans 247; 62 µM (≈ 160 µg/mL) against Candida albicans B4; 62 µM (≈ 160 µg/mL) in test [1]. In addition, the MIC90 against Candida albicans 138 is given as 62 µM (≈ 160 µg/mL); in the test with Candida albicans B3, 62 µM (≈ 160 µg/mL); in the test on Candida albicans SC 5314, 15 µM (≈ 38.8 µg/mL); in the test on Candida albicans 247 it was 62 µM (≈ 160 µg/mL); against Candida albicans B4, 125 µM (≈ 323 µg/mL); in [1], 125 µM (≈ 323 µg/mL). Besides, the MFC against Candida albicans 138 (C. albicans 138, aliquots plated on YPD agar, 24 h, lowest concentration with no colony growth) is on record as 250 µM (≈ 646 µg/mL); in the test on Candida albicans B3 (C. albicans B3, aliquots plated on YPD agar, 24 h, lowest concentration with no colony growth), 62 µM (≈ 160 µg/mL); in the test with Candida albicans SC 5314, 31 µM (≈ 80.1 µg/mL); against Candida albicans 247 (C. albicans 247, aliquots plated on YPD agar, 24 h, lowest concentration with no colony growth) it was 250 µM (≈ 646 µg/mL); against Candida albicans B4 (C. albicans B4, aliquots plated on YPD agar, 24 h, lowest concentration with no colony growth) it was 125 µM (≈ 323 µg/mL). In addition, the “cell membrane disruption (PI uptake), in words” value in the test on C. albicans SC5314 [3] was “significant cell membrane damage”. In the test on C. albicans SC5314 [4], the “reduction in yeast cell count” value turned out to be 1 log10.

As to `CSCC[C@H](NC(=O)[C@H](CCCNC(=N)N)NC(=O)[C@H](Cc1c[nH]c2ccccc12)NC(=O)[C@H](CCC(N)=O)NC(=O)[C@H](Cc1c[nH]c2ccccc12)NC(=O)[C@H](CCCNC(=N)N)NC(=O)[C@H](CCCNC(=N)N)NC(=O)[C@H](CS)NC(=O)[C@H](CCCCN)NC(=O)[C@H](Cc1ccccc1)NC(=O)CCCC(=O)OC(Cn1cncn1)(Cn1cncn1)c1ccc(F)cc1F)C(N)=O` [FLCpOH-LFacinB(2-11)-NH2] (X1-FKCRRWQWRM-NH2), the MIC50 against Candida albicans 138 was 190 µM (≈ 361 µg/mL); in the test on Candida albicans B3 it was 125 µM (≈ 237 µg/mL); in the test on Candida albicans SC 5314, 62 µM (≈ 118 µg/mL); against Candida albicans 247, 190 µM (≈ 361 µg/mL); against Candida albicans B4, 190 µM (≈ 361 µg/mL); in test [1], above 250 µM. The MIC90 is 250 µM (≈ 475 µg/mL) against Candida albicans 138; 250 µM (≈ 475 µg/mL) in the test on Candida albicans B3; 125 µM (≈ 237 µg/mL) against Candida albicans SC 5314; 250 µM (≈ 475 µg/mL) against Candida albicans 247; 250 µM (≈ 475 µg/mL) against Candida albicans B4; above 250 µM in test [1]. Further, the MFC in the test on Candida albicans SC 5314 is recorded as 250 µM (≈ 475 µg/mL). Besides, the “antifungal activity” value in [2] was “moderately or poorly active”.
